Test results taken from patent US4698344A, “1-Heteroaryl-4-aryl-pyrazolin-5-ones for use as medicaments” (priority 1984, dated 1987).
Where two headings read alike, the source gives them in different places.

Tests used:
[1] = test system: carrageenan-induced oedema of the rat paw; assay: Carrageenan-induced oedema of the rat paw; type: in vivo; conditions: for % inhibition of the carrageenan oedema: oral, 2.5 mg/kg, rats, 5 hours after oedema provocation
Protocol: The antiinflammatory action of the test substances following oral administration was determined with the aid of carrageenan-induced oedema of the rat paw.
The experiments were carried out with male rats, strain: Bor:WLSW (SPF-Cpb); weight 150 to 220 g. One hour before inducing the oedema (0.1 ml of carrageenan suspension/animal, subplantar injection), the substance to be tested was administered to the animals as a suspension in tragacanth with the aid of a stomach tube; as a control, a second group of animals was treated with tragacanth without the substance.
The paw volumes were measured by the method of F. Kemper and G. Ameln Z. exp.

[2] = test system: cyclooxygenase; conditions: background statement; cited from earlier work
[3] = biological target: T1, 5-lipoxygenase (Homo sapiens, UniProt P09917); assay: Lipoxygenase activity (LTB4 synthesis) in human PMN leukocytes stimulated with A 23187; type: cell-based; conditions: for inhibition at 10 µg/mL: read-out: Inhibition of LTB4 synthesis in human PMN's; for Effective threshold concentration, inhibition of LTB4 synthesis: human PMN's
T1 construct: endogenous in cells; host or cells: human polymorphonuclear leukocytes from heparinized whole blood
T1 sequence (P09917 1-674): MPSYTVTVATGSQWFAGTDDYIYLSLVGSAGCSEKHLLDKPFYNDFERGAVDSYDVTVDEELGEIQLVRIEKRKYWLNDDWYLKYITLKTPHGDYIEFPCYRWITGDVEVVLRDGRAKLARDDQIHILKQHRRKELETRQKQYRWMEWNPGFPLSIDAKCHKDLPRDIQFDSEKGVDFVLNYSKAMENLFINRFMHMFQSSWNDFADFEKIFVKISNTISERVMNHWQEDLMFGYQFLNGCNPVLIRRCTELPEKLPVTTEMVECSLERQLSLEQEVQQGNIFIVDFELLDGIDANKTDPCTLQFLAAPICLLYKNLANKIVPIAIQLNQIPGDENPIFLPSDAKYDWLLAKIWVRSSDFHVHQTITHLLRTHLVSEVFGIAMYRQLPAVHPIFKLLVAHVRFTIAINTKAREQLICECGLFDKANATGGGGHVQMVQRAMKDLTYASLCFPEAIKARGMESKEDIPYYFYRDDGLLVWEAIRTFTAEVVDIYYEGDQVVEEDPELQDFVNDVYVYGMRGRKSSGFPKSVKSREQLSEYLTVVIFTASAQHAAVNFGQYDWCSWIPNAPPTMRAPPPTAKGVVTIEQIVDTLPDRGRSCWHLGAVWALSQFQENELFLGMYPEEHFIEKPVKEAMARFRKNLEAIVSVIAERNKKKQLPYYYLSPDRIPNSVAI
Protocol: The polymorphonuclear leukocytes of humans metabolize arachidonic acid to give 5-hydroxy-5,8,11,14-eicosatetraenoic acid (5-HETE) and leukotriene B4 (5S, 12R-dihydroxy-6-cis, 8,10-trans-14ciseicosatetraenoic acid). Inhibition of the release of 5-HETE and leukotriene B4 from leukocytes is a measure of the lipoxygenase-inhibiting effect of the compounds according to the invention.
After 15 minutes, the lipoxygenase products were extracted from the acidified incubation medium and separated by means of HPLC.

[4] = biological target: T2, cyclooxygenase (Homo sapiens, UniProt P23219); assay: Arachidonic acid metabolism in human platelets: cyclooxygenase activity; type: cell-based
T2 construct: washed human platelets; endogenous in cells; host or cells: washed human platelets
Protocol: (§1) The metabolism of radioactively labelled arachidonic acid on washed human platelets is utilised in this test method. In this in vitro test, the radioactively labelled metabolites are extracted from the reaction mixture and separated by thin layer chromatography. The autoradiogram is evaluated with a thin layer scanner. Under these test conditions, the labelled metabolites are separated from the unreacted arachidonic acid and can then be evaluated quantitatively.

[5] = biological target: T3, 12-lipoxygenase (Homo sapiens, UniProt P18054); assay: Arachidonic acid metabolism in human platelets: 12-lipoxygenase activity; type: cell-based
T3 construct: washed human platelets; endogenous in cells; host or cells: washed human platelets
T3 sequence (P18054 1-663): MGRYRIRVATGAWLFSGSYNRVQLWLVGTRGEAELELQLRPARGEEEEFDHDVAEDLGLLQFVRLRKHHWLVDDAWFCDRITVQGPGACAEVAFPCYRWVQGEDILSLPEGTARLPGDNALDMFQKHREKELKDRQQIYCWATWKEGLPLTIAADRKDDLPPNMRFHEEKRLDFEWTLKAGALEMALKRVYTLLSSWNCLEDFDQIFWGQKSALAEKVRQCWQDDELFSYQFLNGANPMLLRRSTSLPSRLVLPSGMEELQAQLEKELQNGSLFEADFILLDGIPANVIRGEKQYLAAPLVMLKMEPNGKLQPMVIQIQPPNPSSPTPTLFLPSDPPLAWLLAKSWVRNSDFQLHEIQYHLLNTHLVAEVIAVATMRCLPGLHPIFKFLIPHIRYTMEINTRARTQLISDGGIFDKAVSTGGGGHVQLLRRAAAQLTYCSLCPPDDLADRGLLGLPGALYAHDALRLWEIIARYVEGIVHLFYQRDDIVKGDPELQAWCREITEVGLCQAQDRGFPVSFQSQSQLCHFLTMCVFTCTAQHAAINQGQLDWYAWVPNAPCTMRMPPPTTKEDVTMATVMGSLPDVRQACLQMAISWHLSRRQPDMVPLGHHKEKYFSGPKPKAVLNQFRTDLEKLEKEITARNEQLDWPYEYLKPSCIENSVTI
Protocol: as §1

[6] = biological target: T4, cyclooxygenase (Rattus norvegicus, UniProt Q63921); assay: Cyclooxygenase activity in homogenates of RBL-1 cells; type: biochemical; conditions: concentration 0.5-1 μg/ml; negative = inhibition
T4 construct: homogenates of RBL-1 cells; endogenous in cells; host or cells: RBL-1 (rat basophilic leukaemia) cells, homogenate
T4 sequence (Q63921 27-602): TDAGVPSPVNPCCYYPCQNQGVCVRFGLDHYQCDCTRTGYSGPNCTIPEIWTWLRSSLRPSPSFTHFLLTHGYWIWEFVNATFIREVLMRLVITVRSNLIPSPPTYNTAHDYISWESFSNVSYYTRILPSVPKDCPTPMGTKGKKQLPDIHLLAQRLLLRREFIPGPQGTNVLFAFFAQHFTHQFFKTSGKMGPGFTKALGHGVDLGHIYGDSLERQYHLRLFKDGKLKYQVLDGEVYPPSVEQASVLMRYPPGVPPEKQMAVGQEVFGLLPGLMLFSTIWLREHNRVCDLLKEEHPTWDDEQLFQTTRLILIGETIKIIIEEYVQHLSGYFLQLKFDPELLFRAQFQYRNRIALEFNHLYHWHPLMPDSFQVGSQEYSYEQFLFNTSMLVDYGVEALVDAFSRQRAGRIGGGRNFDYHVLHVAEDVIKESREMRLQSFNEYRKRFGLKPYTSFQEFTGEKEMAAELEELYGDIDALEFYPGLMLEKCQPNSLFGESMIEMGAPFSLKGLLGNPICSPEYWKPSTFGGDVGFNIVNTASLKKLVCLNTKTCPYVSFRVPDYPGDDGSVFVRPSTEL
From the text: (§2) Basophilic leukaemia cells from rats (RBL-1) synthesize both lipoxygenase and cyclooxygenase products from ^14 C-arachidonic acid with which they are supplied. […] The products formed were separated by thin layer chromatography and quantified in a scanner.

[7] = biological target: T5, lipoxygenase (Rattus norvegicus, UniProt P12527); assay: Lipoxygenase activity in homogenates of RBL-1 cells; type: biochemical; conditions: concentration 0.5-1 μg/ml; negative = inhibition
T5 construct: homogenates of RBL-1 cells; endogenous in cells; host or cells: RBL-1 (rat basophilic leukaemia) cells, homogenate
T5 sequence (P12527 1-673): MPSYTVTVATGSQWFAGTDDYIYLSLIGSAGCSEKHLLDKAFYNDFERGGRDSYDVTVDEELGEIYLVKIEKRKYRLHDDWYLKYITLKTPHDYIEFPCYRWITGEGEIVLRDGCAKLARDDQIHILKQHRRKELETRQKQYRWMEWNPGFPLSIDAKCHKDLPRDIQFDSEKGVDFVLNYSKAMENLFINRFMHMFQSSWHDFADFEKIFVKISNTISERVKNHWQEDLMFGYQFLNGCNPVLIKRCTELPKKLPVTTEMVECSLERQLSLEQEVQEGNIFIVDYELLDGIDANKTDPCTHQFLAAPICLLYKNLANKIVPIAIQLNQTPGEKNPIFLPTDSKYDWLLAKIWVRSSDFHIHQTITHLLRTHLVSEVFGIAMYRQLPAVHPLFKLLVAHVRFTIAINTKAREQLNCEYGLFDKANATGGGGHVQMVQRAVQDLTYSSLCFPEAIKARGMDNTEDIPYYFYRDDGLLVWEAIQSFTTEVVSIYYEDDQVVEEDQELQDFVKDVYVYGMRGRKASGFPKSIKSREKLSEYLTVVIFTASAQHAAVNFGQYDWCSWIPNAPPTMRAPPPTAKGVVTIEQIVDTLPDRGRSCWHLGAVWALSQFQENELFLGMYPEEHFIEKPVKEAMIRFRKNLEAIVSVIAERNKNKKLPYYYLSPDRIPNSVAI
From the text: as §2

[8] = test system: release of leukotrienes (SRS-A); assay: Passive peritoneal anaphylaxis (rats); type: in vivo, rat; conditions: 100 mg/kg perorally
Protocol: The effect of substances on the release of mediators, in particular the release of leukotrienes, is recorded with this in vivo method. […] Histamine is not released during this, so that the lipoxygenase-inhibiting action of test substances can be investigated selectively.

[9] = administered systemically (for example orally); cited from earlier work

T2 sequence (P23219 24-599): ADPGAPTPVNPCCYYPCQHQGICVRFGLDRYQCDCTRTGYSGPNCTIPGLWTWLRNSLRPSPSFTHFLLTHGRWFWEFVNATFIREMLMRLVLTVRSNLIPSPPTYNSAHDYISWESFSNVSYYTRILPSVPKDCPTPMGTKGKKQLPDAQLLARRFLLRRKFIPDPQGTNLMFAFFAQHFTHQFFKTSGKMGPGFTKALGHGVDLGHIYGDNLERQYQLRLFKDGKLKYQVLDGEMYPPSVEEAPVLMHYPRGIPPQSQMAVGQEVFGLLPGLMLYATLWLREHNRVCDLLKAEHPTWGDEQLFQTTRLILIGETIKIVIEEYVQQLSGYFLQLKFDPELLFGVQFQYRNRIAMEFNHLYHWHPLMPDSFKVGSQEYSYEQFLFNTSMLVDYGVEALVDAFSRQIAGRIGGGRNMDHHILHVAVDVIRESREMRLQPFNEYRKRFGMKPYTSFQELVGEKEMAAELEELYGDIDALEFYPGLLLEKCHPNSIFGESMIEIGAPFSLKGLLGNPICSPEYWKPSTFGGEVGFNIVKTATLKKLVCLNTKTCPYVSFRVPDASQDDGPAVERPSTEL

| Action on cyclooxygenase (CO): Effect [6] | Action on lipoxygenase (LO): Effect [7] [%] | Structure (SMILES) | % inhibition of the carrageenan oedema [1] [%] | also measured |
| --- | --- | --- | --- | --- |
|  |  | Cc1[nH]n(-c2ccccn2)c(=O)c1-c1ccccc1 [Example 49] | 16 |  |
|  |  | CCCCCC#CCC#CCC#CCC#CCCCC(=O)O [5,8,11,14-eicosatetraynoic acid] |  | cyclooxygenase activity / potency of known lipoxygenase inhibitors (in words) [2]: either simultaneously active as cyclooxygenase inhibitors or active only at very high concentrations |
|  |  | O=c1c(-c2ccccc2)c[nH]n1-c1ccc([N+](=O)[O-])cn1 [Example 69] | 34 |  |
|  |  | Cc1[nH]n(-c2ccc(Cl)cn2)c(=O)c1-c1ccccc1 [Example 63] |  | inhibition at 10 µg/mL ([3]; at 10 μg/ml): 100%; Effective threshold concentration, inhibition of LTB4 synthesis [3]: 1 to 10 µg/mL; Inhibition (threshold concentration), cyclooxygenase [4]: 1 to 10 µg/mL; Inhibition (threshold concentration), 12-lipoxygenase [5]: 1 to 10 µg/mL |
| -19% | -76 | O=c1c(-c2ccc(Cl)c(Cl)c2)c[nH]n1-c1ccccn1 [Example 16] |  | inhibition at 10 µg/mL ([3]; at 10 μg/ml): 85%; Effective threshold concentration, inhibition of LTB4 synthesis [3]: 1 to 10 µg/mL; Inhibition (threshold concentration), cyclooxygenase [4]: 1 to 10 µg/mL; Inhibition (threshold concentration), 12-lipoxygenase [5]: 1 to 10 µg/mL |
| +5% | -58 | O=c1c(-c2ccc(C(F)(F)F)cc2)c[nH]n1-c1ccccn1 [Example 28] | 21 |  |
|  |  | O=C1CCN(c2ccccc2)N1 [phenidone] |  | cyclooxygenase activity / potency of known lipoxygenase inhibitors (in words) [2]: either simultaneously active as cyclooxygenase inhibitors or active only at very high concentrations |
|  |  | COc1ccc(-c2c[nH]n(-c3ccccn3)c2=O)cc1 [Example 18] | 22 |  |
| +3% | -73 | O=c1c(-c2ccccc2F)c[nH]n1-c1ccccn1 [Example 8] |  | inhibition at 10 µg/mL ([3]; at 10 μg/ml): 71%; Effective threshold concentration, inhibition of LTB4 synthesis [3]: 1 to 10 µg/mL; Inhibition (threshold concentration), cyclooxygenase [4]: 1 to 10 µg/mL; Inhibition (threshold concentration), 12-lipoxygenase [5]: 1 to 10 µg/mL |
| +23% | -46 | O=c1c(-c2ccccc2F)c[nH]n1-c1ncccn1 [Example 104] |  |  |
|  |  | Cc1cccc(-c2c[nH]n(-c3ccccn3)c2=O)c1 [Example 25] |  | % inhibition, passive peritoneal anaphylaxis [8]: 64% |
| -11% | -71 | COc1ccc(-c2c[nH]n(-c3ncccn3)c2=O)cc1 [Example 113] |  |  |
| -17% | -66 | COc1ccccc1-c1c[nH]n(-c2ccc(Cl)cn2)c1=O [Example 58] |  |  |
|  |  | O=c1c(-c2ccc(C(F)(F)F)cc2)c[nH]n1-c1ncc(Cl)cn1 [Example 135] | 46 |  |
|  | -42 | O=c1c(-c2ccccc2)c[nH]n1-c1ncccn1 [Example 103, 1-pyrimid-2-yl-4-phenyl-pyrazolin-5-one] |  |  |
|  |  | O=c1c(-c2cccc(C(F)(F)F)c2)c[nH]n1-c1ccccn1 [Example 27] |  | % inhibition, passive peritoneal anaphylaxis [8]: 47% |
|  |  | CC(Cc1ccc(O)c(O)c1)C(C)Cc1ccc(O)c(O)c1 (stereo not drawn) [nordihydroguaretic acid] |  | cyclooxygenase activity / potency of known lipoxygenase inhibitors (in words) [2]: either simultaneously active as cyclooxygenase inhibitors or active only at very high concentrations |
| -2% | -34 | Cc1ccccc1-c1c[nH]n(-c2ccccn2)c1=O [Example 24] |  |  |
|  |  | NC1=NN(c2cccc(C(F)(F)F)c2)CC1 [BW 755C, 3-amino-1-(3-trifluoromethylphenyl)-pyrazoline] |  | toxic side effects (in words) [9]: toxic side effects |
|  |  | O=c1c(-c2ccccc2)c[nH]n1-c1ncc(Cl)cn1 [Example 130] | 38 |  |

| Structure (SMILES) | Action on cyclooxygenase (CO): Effect [6] | Action on lipoxygenase (LO): Effect [7] [%] | % inhibition of the carrageenan oedema [1] [%] | also measured |
| --- | --- | --- | --- | --- |
| O=c1c(-c2ccccc2)c[nH]n1-c1ccccn1 [Example 7, 1-pyrid-2-yl-4-phenyl-pyrazolin-5-one] | +28% | -66 | 44 | inhibition at 10 µg/mL [3]: 92%; ED50 ([1]; Rattus norvegicus, po, 5 h, read-out: ED50 of oedema inhibition): 9.1 mg/kg; % inhibition, passive peritoneal anaphylaxis [8]: 65% |
